Assay results reported in the supplement of paper PMC13207355.
Counter-ions that a name gives are not always drawn.

Tests used:
Conditions in all cases: exposure time: 72 h
[1] = tested on: E28 (patient-derived glioblastoma stem cells of classical subtype); assay: surviving fraction (nuclei count normalised to DMSO); higher = more cells surviving (less toxic)
[2] = tested on: FT3469 (normal neural stem cell line); assay: as above
[3] = tested on: E34 (patient-derived glioblastoma stem cells of proneural subtype); assay: as above
[4] = tested on: E21 (patient-derived glioblastoma stem cells of mesenchymal subtype); assay: as above
[5] = tested on: E57 (patient-derived glioblastoma stem cells of mesenchymal subtype); assay: as above
[6] = tested on: E31 (patient-derived glioblastoma stem cells of proneural subtype); assay: as above
[7] = tested on: E13 (patient-derived glioblastoma stem cells of classical subtype); assay: as above
[8] = tested on: E28; assay: phenotypic distance (Euclidean, principal components) from DMSO controls (arbitrary units); higher = stronger morphological change
[9] = tested on: FT3469; assay: as above
[10] = tested on: E34; assay: as above
[11] = tested on: E21; assay: as above
[12] = tested on: E57; assay: as above
[13] = tested on: E31; assay: as above
[14] = tested on: E13; assay: as above
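Wherever phenotypic distance (Euclidean, principal components) from DMSO controls is given: cell Painting imaging in 384-well plates, CellProfiler features reduced to at least 20 principal components, Euclidean distance versus same-plate DMSO vehicle wells (0.1% v/v), median over six images per well.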
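Wherever surviving fraction (nuclei count normalised to DMSO) is given: nuclei counted by high-content imaging of Hoechst-stained cells in laminin-coated 384-well plates, relative to 0.1% DMSO vehicle wells, with staurosporine as cell-death control.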

CSc1ccc2c(c1)N(CCC1CCCCN1C)c1ccccc1S2 (stereo unspecified) [Thioridazine hydrochloride]
Conditions | phenotypic distance | surviving fraction
[1], 4.1 nM | – | 1.06
[1], 12.3 nM | – | 1.05
[1], 37 nM | – | 1.01
[1], 111.1 nM | – | 1.06
[1], 333.3 nM | – | 1.14
[1], 1000 nM | – | 0.893
[1], 3000 nM | – | 1.05
[2], 4.1 nM | – | 1.11
[2], 12.3 nM | – | 0.948
[2], 37 nM | – | 1.02
[2], 111.1 nM | – | 0.934
[2], 333.3 nM | – | 1
[2], 1000 nM | – | 1.06
[2], 3000 nM | – | 0.997
[3], 4.1 nM | – | 0.994
[3], 12.3 nM | – | 0.901
[3], 37 nM | – | 0.957
[3], 111.1 nM | – | 0.923
[3], 333.3 nM | – | 0.896
[3], 1000 nM | – | 0.974
[3], 3000 nM | – | 0.91
[4], 4.1 nM | – | 0.936
[4], 12.3 nM | – | 0.936
[4], 37 nM | – | 0.946
[4], 111.1 nM | – | 1
[4], 333.3 nM | – | 0.935
[4], 1000 nM | – | 0.952
[4], 3000 nM | – | 1.02
[5], 4.1 nM | – | 0.993
[5], 12.3 nM | – | 0.914
[5], 37 nM | – | 0.948
[5], 111.1 nM | – | 0.926
[5], 333.3 nM | – | 0.952
[5], 1000 nM | – | 0.889
[5], 3000 nM | – | 1.2
[6], 4.1 nM | – | 0.911
[6], 12.3 nM | – | 0.899
[6], 37 nM | – | 1.03
[6], 111.1 nM | – | 0.762
[6], 333.3 nM | – | 1.01
[6], 1000 nM | – | 0.88
[6], 3000 nM | – | 0.874
[7], 4.1 nM | – | 0.922
[7], 12.3 nM | – | 0.886
[7], 37 nM | – | 0.934
[7], 111.1 nM | – | 0.929
[7], 333.3 nM | – | 0.939
[7], 1000 nM | – | 0.93
[7], 3000 nM | – | 0.861
[8], 4.1 nM | 1.44 | –
[8], 12.3 nM | 0.64 | –
[8], 37 nM | 0.64 | –
[8], 111.1 nM | 0.832 | –
[8], 333.3 nM | 0.524 | –
[8], 1000 nM | 0.717 | –
[8], 3000 nM | 0.589 | –
[9], 4.1 nM | 1.76 | –
[9], 12.3 nM | 1.1 | –
[9], 37 nM | 0.901 | –
[9], 111.1 nM | 0.672 | –
[9], 333.3 nM | 1.85 | –
[9], 1000 nM | 0.516 | –
[9], 3000 nM | 0.354 | –
[10], 4.1 nM | 1.83 | –
[10], 12.3 nM | 0.749 | –
[10], 37 nM | 0.609 | –
[10], 111.1 nM | 0.331 | –
[10], 333.3 nM | 0.663 | –
[10], 1000 nM | 0.609 | –
[10], 3000 nM | 0.89 | –
[11], 4.1 nM | 1.5 | –
[11], 12.3 nM | 0.757 | –
[11], 37 nM | 0.366 | –
[11], 111.1 nM | 0.452 | –
[11], 333.3 nM | 0.631 | –
[11], 1000 nM | 0.422 | –
[11], 3000 nM | 0.911 | –
[12], 4.1 nM | 1.05 | –
[12], 12.3 nM | 0.805 | –
[12], 37 nM | 0.596 | –
[12], 111.1 nM | 0.728 | –
[12], 333.3 nM | 0.352 | –
[12], 1000 nM | 0.966 | –
[12], 3000 nM | 0.872 | –
[13], 4.1 nM | 1.05 | –
[13], 12.3 nM | 0.458 | –
[13], 37 nM | 0.506 | –
[13], 111.1 nM | 0.946 | –
[13], 333.3 nM | 0.547 | –
[13], 1000 nM | 0.532 | –
[13], 3000 nM | 1.19 | –
[14], 4.1 nM | 0.45 | –
[14], 12.3 nM | 0.608 | –
[14], 37 nM | 0.775 | –
[14], 111.1 nM | 3.1 | –
[14], 333.3 nM | 0.477 | –
[14], 1000 nM | 0.686 | –
[14], 3000 nM | 1.2 | –

C[C@H]1O[C@@H](O[C@H]2[C@@H](O)C[C@H](O[C@H]3[C@@H](O)C[C@H](O[C@H]4CC[C@@]5(C)[C@H](CC[C@@H]6[C@@H]5C[C@@H](O)[C@]5(C)[C@@H](C7=CC(=O)OC7)CC[C@]65O)C4)O[C@@H]3C)O[C@@H]2C)C[C@H](O)[C@@H]1O [Digoxin]
Conditions | phenotypic distance | surviving fraction
[1], 4.1 nM | – | 0.839
[1], 12.3 nM | – | 0.85
[1], 37 nM | – | 0.696
[1], 111.1 nM | – | 0.628
[1], 333.3 nM | – | 0.491
[1], 1000 nM | – | 0.452
[1], 3000 nM | – | 0.332
[2], 4.1 nM | – | 0.79
[2], 12.3 nM | – | 0.652
[2], 37 nM | – | 0.628
[2], 111.1 nM | – | 0.686
[2], 333.3 nM | – | 0.684
[2], 1000 nM | – | 0.577
[2], 3000 nM | – | 0.566
[3], 4.1 nM | – | 0.979
[3], 12.3 nM | – | 0.745
[3], 37 nM | – | 0.632
[3], 111.1 nM | – | 0.539
[3], 333.3 nM | – | 0.466
[3], 1000 nM | – | 0.394
[3], 3000 nM | – | 0.293
[4], 4.1 nM | – | 0.854
[4], 12.3 nM | – | 0.676
[4], 37 nM | – | 0.497
[4], 111.1 nM | – | 0.368
[4], 333.3 nM | – | 0.269
[4], 1000 nM | – | 0.266
[4], 3000 nM | – | 0.218
[5], 4.1 nM | – | 1
[5], 12.3 nM | – | 0.74
[5], 37 nM | – | 0.392
[5], 111.1 nM | – | 0.27
[5], 333.3 nM | – | 0.207
[5], 1000 nM | – | 0.166
[5], 3000 nM | – | 0.112
[6], 4.1 nM | – | 0.87
[6], 12.3 nM | – | 0.721
[6], 37 nM | – | 0.47
[6], 111.1 nM | – | 0.403
[6], 333.3 nM | – | 0.36
[6], 1000 nM | – | 0.356
[6], 3000 nM | – | 0.252
[7], 4.1 nM | – | 0.795
[7], 12.3 nM | – | 0.448
[7], 37 nM | – | 0.349
[7], 111.1 nM | – | 0.348
[7], 333.3 nM | – | 0.272
[7], 1000 nM | – | 0.306
[7], 3000 nM | – | 0.266
[8], 4.1 nM | 1 | –
[8], 12.3 nM | 1.47 | –
[8], 37 nM | 2.1 | –
[8], 111.1 nM | 2.57 | –
[8], 333.3 nM | 2.97 | –
[8], 1000 nM | 3.74 | –
[8], 3000 nM | 2.92 | –
[9], 4.1 nM | 2.61 | –
[9], 12.3 nM | 3.2 | –
[9], 37 nM | 4.1 | –
[9], 111.1 nM | 3.74 | –
[9], 333.3 nM | 3.18 | –
[9], 1000 nM | 4.16 | –
[9], 3000 nM | 3.8 | –
[10], 4.1 nM | 1.18 | –
[10], 12.3 nM | 3.09 | –
[10], 37 nM | 4.76 | –
[10], 111.1 nM | 5.12 | –
[10], 333.3 nM | 3.77 | –
[10], 1000 nM | 3.7 | –
[10], 3000 nM | 5.72 | –
[11], 4.1 nM | 2.11 | –
[11], 12.3 nM | 3.25 | –
[11], 37 nM | 3.77 | –
[11], 111.1 nM | 6.27 | –
[11], 333.3 nM | 6.66 | –
[11], 1000 nM | 5.99 | –
[11], 3000 nM | 6.15 | –
[12], 4.1 nM | 1.42 | –
[12], 12.3 nM | 3.76 | –
[12], 37 nM | 5.52 | –
[12], 111.1 nM | 5.37 | –
[12], 333.3 nM | 6.22 | –
[12], 1000 nM | 6.34 | –
[12], 3000 nM | 6.45 | –
[13], 4.1 nM | 2.21 | –
[13], 12.3 nM | 3.02 | –
[13], 37 nM | 4.38 | –
[13], 111.1 nM | 5.51 | –
[13], 333.3 nM | 5.08 | –
[13], 1000 nM | 4.94 | –
[13], 3000 nM | 4.77 | –
[14], 4.1 nM | 2.96 | –
[14], 12.3 nM | 3.64 | –
[14], 37 nM | 5.02 | –
[14], 111.1 nM | 5.57 | –
[14], 333.3 nM | 6.42 | –
[14], 1000 nM | 6.06 | –
[14], 3000 nM | 6.15 | –
